A word on the MBC: it is the lowest tested concentration that kills the bacteria rather than only halting them. By MIC is commonly meant the lowest concentration found to suppress growth. High values mean a need for much substance, low ones inhibition by little substance.

Three molecules from patent publication EP1785721A1, “Microbial, viral and mammalian susceptibility to agents that affect cell growth and metabolism, and mode of action of compounds” (Stratos Bio Ltd., priority 2005, dated 2007) can be followed below.

Read-outs that look alike come from different tables or passages of the source.

The test system of one assay is respiring E.coli. The experiment in a line: Flow microcalorimetry (p-t curves) of respiring cells in glucose buffer. The assay is classed as cell-based. As to the method: The respiration experiments were carried out in glucose buffer at different pH.
The nitrofurans only differed in the length of their side chains (e.g. methyl, propyl etc.).
To assay the nitrofurans at a concentration where the maximum sensitivity to E.coli could be achieved MIC's were determined for each compound. […] The respiratory medium was the one described previously at pH7. […] No compensation was made for DMSO when diluting the samples as high concentrations of DMSO could falsify the results.

The subject of assay [1] is Bordetella bronchiseptica. As to the kind of experiment: Flow microcalorimetry (p-t curves) of growing culture. In kind it is cell-based. The source says:
(§1) • a) For B. pumilus a simple glucose/salts medium was employed with a glucose concentration of 0.1 % w/v. • b) For Bord. bronch. The above salts medium was used with the addition of nicotinic acid, methionine and glutamic acid. Glutamic acid was used at a concentration of 0.2% w/v. • c) For M. flavus a semidefined medium was employed, using the same salts as a B. pumilus but also Na-citrate, biotin and protease peptone. In the calorimeter a concentration of 0.4% protease peptone was used. All medium constituents (except protease) were analytical reagents. The calorimetric medium was therefore a final concentration of 100ml of either solution a, b or c freshly autoclaved for 15 mins exactly at 121°C, 151b/sq inch. Glucose was added to the appropriate solution after autoclaving.
(§2) To the vertical face of the vessel close to its base, equidistantly spaced around the circumference, ports were fitted for an oxygen electrode and for sampling/inoculation. The fermenter was closed with a flat flanged glass lid which had five ports accommodating respectively, gas inlet tube, gas exhaust (via air condenser), inlet and outlet flow-lines to and from the calorimeter. The fermenter and lid was sealed with a p.t.f.e. gasket and clamped with a metal clip. The fermenter was placed on a magnetic stirring unit in a water jacket which allowed circulation of the thermostatically controlled water at 30°C or 37°C. The fermenter which contained a Teflon coated magnetic stirring bar, was sterilised by autoclaving.
(§3) For a typical calorimetric incubation the medium was passed through the calorimetric vessel at the same flow rate and temperature as those used in the experiment to establish a steady baseline deflection. The following operations then took place to a strict timetable. The liquid nitrogen stored ampoule was thawed at 38°C for 3 min and then stirred for 20 sec on a whirlimixer. The bacterial suspension (0.5-1.5ml) volumes was inoculated into the medium (100ml) two minutes after completion of thawing. A Gilson automatic pipette was used for inoculation. The calorimeter inlet flow-line was placed in the incubation medium 30 seconds after inoculation. The flowing incubation medium reached the calorimetric vessel two min after inlet flow-line insertion. At this time the recording of the p-t curves was started. Eight min after inoculation the outflow from the calorimeter was returned to the fermenter (after the "baseline" medium had run to waste but before the inoculated medium ran to waste) thus making a closed system. Aeration was started as soon as the inlet tube was inserted in the fermenter. Microbiological purity of the culture was checked by plating out a sample of the culture at the end of each incubation on nutrient agar (lab M).
(§4) The output of calorimetric experiments is a plot of power (energy evolution per unit of time) as a function of time. The unit of power (p) is the Watt (W) and the unit of time is the hour (h). In some experiments seconds (s) were used as time unit.
After successful freezing of Bord. bronch p-t curves for growth in different concentrations of glutamic acid from 0.1%-0.5% were obtained. It was concluded that a medium containing 0.2% glutamic acid would be sufficient for a good deflection in the microcalorimeter minimising the possibility of the bacteria clogging in the microcalorimetric cell or in the teflon tubes leading to and from the microcalorimetric cell. A pH of 7 was used in all the following experiments as this is the optimum pH for polymyxin - lipid binding.
It was of vital importance to maintain a constant oxygen tension; this was achieved by using saturation concentrations of oxygen. It was decided to use the height of the small peak as full scale deflection for the antibiotic assay as the increase in power was exponential up to this point and the peak occurred at a convenient time. This choice of assay point was empirical. The inoculum was 1.1 ± 0.06 x 10^8 cfu/ml for all the microclalorimetric incubations. […]

Assay [2] concerns Micrococcus flavus. Described as above. As to conditions: bacterial concentration printed '0?'. The assay is classed as cell-based.
Description: as §1
To the vertical face of the vessel close to its base, equidistantly spaced around the circumference, ports were fitted for an oxygen electrode and for sampling/inoculation. The fermenter was closed with a flat flanged glass lid which had five ports accommodating respectively, gas inlet tube, gas exhaust (via air condenser), inlet and outlet flow-lines to and from the calorimeter. The fermenter and lid was sealed with a p.t.f.e. gasket and clamped with a metal clip. […]

A further assay relates to Bacillus pumilus. Described as above. In kind it is cell-based.
Description: as §1, §2, §3, §4
P-t curves of B. pumilus at 30µV full scale deflection (471.15µW) show a logarithmic increase in power. […] After 10h growth the power output was: 17% for 0.05% glucose, 22% for 0.2% glucose and 18% for 0.1% glucose. It was decided to use 0.1% glucose for microcalorimetrically monitored growth experiments, because use of 0.2% glucose could result in the bacterium clumping in the calorimetric chamber or in the Teflon tubes leading to and from the calorimeter. In 0.05% glucose B. pumilus grew slightly slower and to a smaller percentage total deflection than in the 0.1 % glucose incubations. The p-t curve of 0.1 % glucose on 10µV (157.05µW full scale deflection) was obtained.

The subject of another assay is E.coli. The experiment in a line: MIC and MBC determination, two-fold serial dilutions assayed for turbidity. The assay is classed as cell-based. As to the method:
MIC and MBC's were determined as follows: • Two-fold serial dilutions of antibiotic in their respective media were incubated for 16-24h (depending on the bacterial strain) and assayed for turbidity.
A tube with a turbid suspension was not inhibited and a clear suspension with the lowest concentration of antibiotic showing no growth was designated MIC. MBC's were checked as follows: 0.01ml of each suspension from tubes showing no growth were added to agar plates and incubated for 48H; the lowest concentration of antibiotic from which no colonies formed was designated MBC.
To assay the nitrofurans at a concentration where the maximum sensitivity to E.coli could be achieved MIC's were determined for each compound. […] The respiratory medium was the one described previously at pH7. […] None of the nitrofurans were water soluble so prior to either MIC determination or incubation an accurately weighed sample of each compound was dissolved in 0.4ml DMSO and then 1.6ml H2O was added. When this solution was added to either tubes containing nutrient broth or to the fermentation vessels emulsions resulted. Good stirring minimised the problem in the calorimeter. No compensation was made for DMSO when diluting the samples as high concentrations of DMSO could falsify the results. […] Two types of responses were observed. […] No dependence of MIC on either RMM or power could be observed.

For a further assay, the system named is B. pumilus. As to the kind of experiment: MIC determination, two-fold serial dilutions assayed for turbidity. In kind it is cell-based, Bacillus pumilus. As to the method: (§5) MIC and MBC's were determined as follows: • Two-fold serial dilutions of antibiotic in their respective media were incubated for 16-24h (depending on the bacterial strain) and assayed for turbidity. A tube with a turbid suspension was not inhibited and a clear suspension with the lowest concentration of antibiotic showing no growth was designated MIC. MBC's were checked as follows: 0.01ml of each suspension from tubes showing no growth were added to agar plates and incubated for 48H; the lowest concentration of antibiotic from which no colonies formed was designated MBC.

For assay [3], the system named is Micrococcus flavus. As to the kind of experiment: MIC and MBC determination, two-fold serial dilutions assayed for turbidity. The assay is classed as cell-based. The method, then: as §5
The test system of assay [4] is Bordetella bronchiseptica. The assay is described as above. The assay is classed as cell-based. The method, then: as §5
Assay [5] can be described thus: Animal case study, antibiotic treatment of a scratch to the eye. The assay is classed as in vivo. As to conditions: 30 days of treatment, domestic cat with a scratch to the eye. The method, then:
A domestic cat was given a mixture of antibiotics as eye drops in response to a scratch to the eye. […] Previously the cat had never been given milk (as many animals are allergic to cow's milk). The cat was now given full cream milk as part of a regimen to promote weight gain (the cat also continued to eat its usual amount of daily cat food throughout the period of weight loss). Initially weight was gained but within 24 hours weight loss resumed (presumably because the pathogenic bacteria/viruses had found a way of utilising lactose). An autopsy indicated bone-cancer as cause of death. The body wasting caused by the weight loss was very similar to that observed in early AIDS cases. However the cat had been regularly vaccinated against HTLV 1 through its 16 year life (and had never been ill in that period).

Turning to `NC[C@@H]1O[C@H](O[C@H]2[C@@H](O)[C@H](O[C@@H]3[C@@H](O)[C@H](N)C[C@H](N)[C@H]3O[C@H]3O[C@H](CN)[C@@H](O)[C@H](O)[C@H]3N)O[C@@H]2CO)[C@H](N)[C@@H](O)[C@@H]1O.O=S(=O)(O)O` [Neomycin sulphate], the “range of linear dose-response” value in the assay with respiring E.coli (respiration) lay in the range of 10 to 100 µg/mL. Besides, the “Observed effect on p-t curves” value in the assay with respiring E.coli (respiration, 500 ug/ml) is “Increase in heat output”; in [1] (0.25ug/ml added at 50 % of p-t curve), “No effect on p-t curve”; with Micrococcus flavus [2] (4 ug/ml), “No effect on p-t curve”. The “range of linear relationship between dose and the reciprocal of increase in response from the control curve” value in the assay with respiring E.coli (respiring E.coli) fell in the range of 20 to 100 µg/mL. The heat output entry was “increased heat output” with respiring E.coli (respiring E.coli, all concentrations) and “increased heat output” in the assay on Bacillus pumilus (concentrations of < 1ug/ml or in combinations with other antibiotics, organism not named at this place). Also, in the assay with respiring E.coli (respiring E.coli, pH 8), the effect on power entry was “caused an increase in power”. The power output entry with Bacillus pumilus (0.5 and 1 x MIC (1-2 µg/ml) added after an increase of 10% of full scale deflection) is “the same effect was observed”; in the assay on Bacillus pumilus (0.5 x MIC (1µg/ml) added after a 25% increase power output, 2-4h after addition), “massive power output”; in the assay on Bacillus pumilus (added after an increase in power output of 15% of full scale deflection) it was “only marginally larger than that observed for the normal growth curve”; in the assay on Bacillus pumilus (higher concentrations of antibiotic (above 1 x MIC), added after 10% of full scale deflection), “a decrease in power output was observed”. Moreover, the MBC result in the assay on E.coli is “NEO 5900 ug/ml”. For the same molecule, the MIC in the assay with E.coli is 500 µg/mL; against E.coli (listed as NEO), “NEO 5900 ug/ml”; with B. pumilus (5.1 x 10^6 cfu/ml, inoculum used in the microcalorimetric incubations), 2 µg/mL; against B. pumilus (inoculum not given) it was “MIC NEO 1 ug/ml”; in the assay with B. pumilus (inoculum of 1x10^5 cfu/ml) it was 0.1 µg/mL; with Micrococcus flavus [3], “MIC NEO 4 ug/ml”. Also, the MIC result in assay [4] is reported as “MIC NEO 0.25 ug/ml”. In addition, the “effect at MIC” value in the assay with B. pumilus (5.1 x 10^6 cfu/ml) and in the assay on B. pumilus (inoculum of 1x10^5 cfu/ml) was “bacteriostatic” throughout.

As for `CN[C@H](CC(C)C)C(=O)N[C@H]1C(=O)N[C@@H](CC(N)=O)C(=O)N[C@H]2C(=O)N[C@H]3C(=O)N[C@H](C(=O)N[C@H](C(=O)O)c4cc(O)cc(O)c4-c4cc3ccc4O)[C@H](O)c3ccc(c(Cl)c3)Oc3cc2cc(c3O[C@@H]2O[C@H](CO)[C@@H](O)[C@H](O)[C@H]2O[C@H]2C[C@](C)(N)[C@H](O)[C@H](C)O2)Oc2ccc(cc2Cl)[C@H]1O` [vancomycin], the “effect of treatment on the eye” value in [5] is “without any effect to the eye”.

For the molecule Polymyxin B sulphate, the Comments result with respiring E.coli (respiration, 6.3 ug/ml) is given as “Bacteriocidal action demonstrated”; in assay [1] (0.35 -2 ug/ml added at 18 % of p-t curve) it was “All curves return to baseline confirmed bacteriocidal action”. Further, the “Observed effect on p-t curves” value was “Reduced height of p-t curve initially and returned to baseline within I hour” in the assay on respiring E.coli (respiration, 6.3 ug/ml); “No effect on growth curve” in [1] (0.07 ug/ml added at 18 % of p-t curve); “Linear log dose response 10 min after addition of antibiotic CV 2.5%” in assay [1] (0.35 -2 ug/ml added at 18 % of p-t curve, 10 min after addition); “Slightly delayed peak” in the assay on Micrococcus flavus [2] (2ug/ml); “Within 9 hours growth was inhibited completely” with Bacillus pumilus (20ug/ml, within 9 hours, bacterial concentration printed '0?'). In the assay on respiring E.coli (respiring E.coli), the “sensitivity of the assay” value turned out to be 3 µg/mL. For the same molecule, in the assay with respiring E.coli (respiring E.coli, pH 7), the “effect on p-t curve” value is “reduced the initial peak height and thereafter the p-t curve returned to baseline”. In addition, the response result in assay [1] (0.033 x MIC (0.07 µg/ml)) is listed as “no response to the antibiotic was observed”. The p-t curve entry in [1] (0.5 x MIC, within 10 min of addition) is recorded as “sharp decline in heat output”. The mode of action entry in assay [1] (at MIC values) was “bactericidal”. In addition, the “decline of the p-t curve” value in assay [1] (concentration larger than 3.5 x MIC) is recorded as “the declines were identical”. Further, the “reversibility of the effect” value in assay [1] (most concentrations of antibiotic, decline in power decreased to a baseline value) was “irreversible”. In addition, the “time to observable response after addition of the antibiotic” value in [1] (usually) was at most 5 min. Also, the MBC in the assay with E.coli was 6.3 µg/mL; in the assay with E.coli (listed as POL) it was “POL 6.3ug/ml”; in assay [4], “Ug/ml MIC & MBC 2 ug/ml”; in assay [4] (listed as polymyxin B sulphate), 2 µg/mL. Moreover, the MIC is 6.3 µg/mL in the assay with E.coli; “POL 6.3ug/ml” with E.coli (listed as POL); “POL 20 ug/ml” with B. pumilus (inoculum not given); “POL 2ug/ml” against Micrococcus flavus [3]; “Ug/ml MIC & MBC 2 ug/ml” in [4]; “POL 2ug/ml” in assay [4] (listed as POL). Besides, the MIC in [4] (listed as polymyxin B sulphate) stood at 2 µg/mL.
